In BindingDB's records for patent US10065963 (Incyte Corporation, 2018) one finds IC50 data, which are given here for two compounds.

Experiment [1] concerns the target Tyrosine-protein kinase JAK1 (Homo sapiens, UniProt P23458). Kind of experiment: In Vitro JAK Kinase Assay. The conditions noted are these: pH 7.8; 25 °C.
The target of experiment [2] is T1, Phosphatidylinositol 4,5-bisphosphate 3-kinase catalytic subunit delta isoform (Homo sapiens, UniProt O00329).
T1 sequence (O00329 whole entry): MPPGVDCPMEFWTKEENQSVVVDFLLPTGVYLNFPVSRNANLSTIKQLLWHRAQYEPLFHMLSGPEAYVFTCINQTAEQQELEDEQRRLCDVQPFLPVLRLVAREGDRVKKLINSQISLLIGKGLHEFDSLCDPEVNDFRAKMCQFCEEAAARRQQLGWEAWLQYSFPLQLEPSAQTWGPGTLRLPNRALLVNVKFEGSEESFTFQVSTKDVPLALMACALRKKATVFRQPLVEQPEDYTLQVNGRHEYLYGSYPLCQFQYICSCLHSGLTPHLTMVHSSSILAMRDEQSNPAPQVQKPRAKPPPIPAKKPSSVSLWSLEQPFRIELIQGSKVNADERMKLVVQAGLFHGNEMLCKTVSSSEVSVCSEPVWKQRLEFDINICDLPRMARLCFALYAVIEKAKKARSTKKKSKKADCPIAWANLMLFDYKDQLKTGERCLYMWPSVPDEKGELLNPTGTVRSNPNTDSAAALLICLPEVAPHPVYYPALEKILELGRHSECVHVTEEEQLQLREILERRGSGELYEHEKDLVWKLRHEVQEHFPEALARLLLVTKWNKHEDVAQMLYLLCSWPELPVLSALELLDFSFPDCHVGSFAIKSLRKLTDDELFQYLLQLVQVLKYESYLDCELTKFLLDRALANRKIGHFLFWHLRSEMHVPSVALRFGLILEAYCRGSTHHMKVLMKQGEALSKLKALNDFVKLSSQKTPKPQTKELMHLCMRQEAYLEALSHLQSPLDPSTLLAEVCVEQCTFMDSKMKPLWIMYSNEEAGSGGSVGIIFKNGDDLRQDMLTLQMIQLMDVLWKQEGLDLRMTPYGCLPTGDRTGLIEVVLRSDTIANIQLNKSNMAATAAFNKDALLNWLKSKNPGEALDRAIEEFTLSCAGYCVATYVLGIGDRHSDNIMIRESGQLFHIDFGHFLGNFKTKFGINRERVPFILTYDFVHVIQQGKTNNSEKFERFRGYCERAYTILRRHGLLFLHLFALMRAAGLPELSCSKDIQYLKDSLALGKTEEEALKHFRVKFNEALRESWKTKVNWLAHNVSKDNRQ
Kind of experiment: PI3K-delta Scintillation Proximity Assay. The conditions noted are these: pH 6.7; 25 °C.

Experiment [3] deals with Phosphatidylinositol 4,5-bisphosphate 3-kinase catalytic subunit gamma isoform (Homo sapiens, UniProt P48736). Kind of experiment: PI3K-gamma Scintillation Proximity Assay. Particulars: pH 6.7; 25 °C. As to the method: PI3Kγ (p110γ) Recombinant Human Protein was purchased from Life technology (Grand Island, N.Y.). […] The final concentration of DMSO in the assay was 2%. […] ATP, 13 nM PI3Kγ. […] The final concentration of SPA beads is 1.0 mg/mL.
Sequence of Phosphatidylinositol 4,5-bisphosphate 3-kinase catalytic subunit gamma isoform (P48736 whole entry, canonical isoform): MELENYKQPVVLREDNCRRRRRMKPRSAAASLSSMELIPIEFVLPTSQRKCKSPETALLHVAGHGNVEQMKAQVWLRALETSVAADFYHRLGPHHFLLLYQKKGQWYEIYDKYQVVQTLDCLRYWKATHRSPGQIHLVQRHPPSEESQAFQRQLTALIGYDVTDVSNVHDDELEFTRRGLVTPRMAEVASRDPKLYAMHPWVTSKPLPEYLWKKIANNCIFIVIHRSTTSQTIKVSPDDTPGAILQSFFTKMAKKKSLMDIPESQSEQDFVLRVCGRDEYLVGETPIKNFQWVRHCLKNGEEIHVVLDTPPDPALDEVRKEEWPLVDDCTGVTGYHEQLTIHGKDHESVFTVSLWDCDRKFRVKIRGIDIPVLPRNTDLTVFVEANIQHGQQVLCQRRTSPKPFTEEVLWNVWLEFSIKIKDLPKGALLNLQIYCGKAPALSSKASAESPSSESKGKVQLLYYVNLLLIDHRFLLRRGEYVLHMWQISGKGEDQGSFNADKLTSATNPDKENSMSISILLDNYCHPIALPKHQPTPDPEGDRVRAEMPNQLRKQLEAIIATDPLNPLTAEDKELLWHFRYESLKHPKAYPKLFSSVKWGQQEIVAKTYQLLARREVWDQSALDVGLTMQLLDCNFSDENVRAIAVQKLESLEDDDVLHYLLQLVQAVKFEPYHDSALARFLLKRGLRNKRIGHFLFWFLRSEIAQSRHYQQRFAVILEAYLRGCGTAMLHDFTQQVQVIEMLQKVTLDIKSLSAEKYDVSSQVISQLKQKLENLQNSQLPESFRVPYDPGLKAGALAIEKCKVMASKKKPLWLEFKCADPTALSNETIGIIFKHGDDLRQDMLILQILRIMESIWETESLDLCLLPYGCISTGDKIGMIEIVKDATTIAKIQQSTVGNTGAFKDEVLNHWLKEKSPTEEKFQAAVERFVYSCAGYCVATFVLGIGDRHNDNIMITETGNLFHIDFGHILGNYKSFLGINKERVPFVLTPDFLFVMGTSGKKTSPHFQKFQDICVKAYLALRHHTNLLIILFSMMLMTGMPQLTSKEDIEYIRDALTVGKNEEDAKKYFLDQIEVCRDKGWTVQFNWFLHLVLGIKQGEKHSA

Structures are written as SMILES. pIC50: −log10 of the molar value. Where only a bound is given, the exact number is not on record here.

Sequence of Tyrosine-protein kinase JAK1 (P23458 whole entry, canonical isoform): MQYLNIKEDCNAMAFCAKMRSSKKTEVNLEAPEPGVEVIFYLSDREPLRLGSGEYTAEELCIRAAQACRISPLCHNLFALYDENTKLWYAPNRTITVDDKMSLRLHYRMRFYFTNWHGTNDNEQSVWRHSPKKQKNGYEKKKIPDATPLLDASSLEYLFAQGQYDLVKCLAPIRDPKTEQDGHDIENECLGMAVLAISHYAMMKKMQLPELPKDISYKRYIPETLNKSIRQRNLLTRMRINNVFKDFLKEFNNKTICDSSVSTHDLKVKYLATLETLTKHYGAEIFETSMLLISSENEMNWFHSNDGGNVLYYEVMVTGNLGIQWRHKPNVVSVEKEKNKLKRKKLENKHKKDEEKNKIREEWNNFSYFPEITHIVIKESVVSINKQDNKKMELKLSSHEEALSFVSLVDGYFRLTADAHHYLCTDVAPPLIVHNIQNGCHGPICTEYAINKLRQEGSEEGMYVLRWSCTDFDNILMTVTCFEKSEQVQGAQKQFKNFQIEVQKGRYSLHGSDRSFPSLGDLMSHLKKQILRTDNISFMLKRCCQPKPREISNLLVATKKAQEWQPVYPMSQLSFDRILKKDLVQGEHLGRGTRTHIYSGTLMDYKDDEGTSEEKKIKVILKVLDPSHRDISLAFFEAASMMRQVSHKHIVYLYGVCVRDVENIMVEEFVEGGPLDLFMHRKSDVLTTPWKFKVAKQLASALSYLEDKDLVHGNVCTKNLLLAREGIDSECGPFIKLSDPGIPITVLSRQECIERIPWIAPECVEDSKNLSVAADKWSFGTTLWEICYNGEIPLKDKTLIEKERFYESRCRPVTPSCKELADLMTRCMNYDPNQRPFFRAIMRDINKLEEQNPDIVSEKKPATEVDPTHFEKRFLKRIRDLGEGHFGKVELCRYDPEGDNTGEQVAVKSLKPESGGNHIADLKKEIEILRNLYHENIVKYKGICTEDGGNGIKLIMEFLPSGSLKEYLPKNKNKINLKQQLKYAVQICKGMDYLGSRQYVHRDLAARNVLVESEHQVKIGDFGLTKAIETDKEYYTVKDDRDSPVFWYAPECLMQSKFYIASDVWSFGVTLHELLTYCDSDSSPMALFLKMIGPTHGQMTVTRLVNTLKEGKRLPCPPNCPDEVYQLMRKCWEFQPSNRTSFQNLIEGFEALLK

In experiment [1], `N#CCC(CN1CCN(C(=O)c2ccc(C#N)cc2F)CC1)n1cc(-c2ncnc3[nH]ccc23)cn1` (stereo not drawn) [US10065963, Compound 5] gave a pIC50 of over 7.00.

As for `C[C@H](NC(=O)c1c(N)nn2cccnc12)c1cc(Cl)c2cncn2c1N1CCS(=O)(=O)[C@@H](C)C1` [US10065963, Example 31B], the pIC50 in experiment [2] and in experiment [3] was over 7.00 throughout.
